IC50 data for 20 compounds are collected here from patent publication US11685747B2, “Compounds that inhibit MCL-1 protein” (AMGEN INC., priority 2014, dated 2023).

Assay [1] concerns the target T1, Mcl-1/Bak protein-protein interactions (Homo sapiens, UniProt Q07820).
T1 construct: expressed in transfected cells; host or cells: HEK 293 M cells, transient transfection
Put plainly: Cell-based split luciferase complementation assay. Particulars: HEK 293 M cells, serum-free, 4 h. The method, then:
Cell-Based Assay (Split Luciferase)
A split luciferase complementation assay was developed to determine the inhibition of Mcl-1/Bak protein-protein interactions in cells. […] Transient transfection was performed using Lipofectamine® LTX/Plus™ reagent (Life Technologies, Grand Island, N.Y.). 24 h after transfection, cells were collected using non-enzyme based cell dissociation buffer StemPro® Accutase® (Life Technologies), and resuspended in serum-free Opti-MEM® (Life Technologies). Cells were then seeded into assay plates with serially diluted test compounds in 0.3% DMSO at density of a 5000 cells/well. Cells were then incubated for 4 h at 37° C. in a cell culture incubator supplement with 5% CO2. Test plates were equilibrated to room temperate for 30 min before addition of 30 μL Steady-Glo® Luciferase assay reagent (Promega, Madison, Wis.) into each test well. Luminescence was determined using an EnVision® Multilabel plate reader 25 min after the addition of detection reagent. IC50 values were then calculated with Xlfit using a logistical 4-parameter fit model in GraphPad Prism (GraphPad Software, San Diego, Calif.) or in Genedata Screener® (Genedata, Basel, Switzerland).

The next assay has as its system OPM-2. Put plainly: Cell viability assay (OPM-2 10 FBS, CellTiter-Glo). It counts as cell-based, human. Particulars: OPM-2 cells. The method, then: Cell Viability Assay (OPM-2 10 FBS)
Cells were seeded into 384-well plates at 3000 cells/well density in complete growth medium containing 10% FBS, and incubated for 16 h with serially diluted test compounds in a 37° C. incubator with 5% CO2. Cell viability was tested using CellTiter-Glo® assay (Promega, Madison, Wis.) according to the manufacturer recommendations. Luminescence was determined using an EnVision® Multilabel plate reader 25 min after the addition of detection reagent. IC50 values were then calculated with Xlfit using a logistical 4-parameter fit model in GraphPad Prism (GraphPad Software, San Diego, Calif.) or in Genedata Screener® (Genedata, Basel, Switzerland).

For the next assay, the target named is T2, recombinant human Mcl-1 (Homo sapiens, UniProt Q07820).
T2 construct: C-terminally 6×His tagged Mcl-1 containing residues 171-327; made in house
In words: Cell free Mcl-1:Bim affinity assay (Mcl-1 HTRF, TR-FRET). It counts as binding. Particulars: inhibition of Mcl-1/Bim interaction. The method, then: Cell Free Mcl-1:Bim Affinity Assay (Mcl-1 HTRF)
The inhibition of the Mcl-1/Bim interaction was measured using a time-resolved fluorescence resonance energy transfer (TR-FRET) assay. […] A biotinylated peptide derived from human Bim (residues 51-76) was purchased from CPC Scientific (San Jose, Calif.). The TR-FRET assay was conducted in a 384-well white OptiPlate™ (PerkinElmer, Waltham, Mass.) in a total volume of 40 μL. […] The reaction plates were further incubated overnight and then were read on an Envision® multimode reader (PerkinElmer). […] The IC50 values of test compounds were determined from duplicate data by analyzing competition curves using a four-parameter sigmoidal model in GraphPad Prism (GraphPad Software, San Diego, Calif.) or in Genedata Screener® (Genedata, Basel, Switzerland).
In general terms: Time-resolved FRET reads energy transfer from a long-lived donor to a nearby acceptor.

T1 sequence (Q07820 whole entry): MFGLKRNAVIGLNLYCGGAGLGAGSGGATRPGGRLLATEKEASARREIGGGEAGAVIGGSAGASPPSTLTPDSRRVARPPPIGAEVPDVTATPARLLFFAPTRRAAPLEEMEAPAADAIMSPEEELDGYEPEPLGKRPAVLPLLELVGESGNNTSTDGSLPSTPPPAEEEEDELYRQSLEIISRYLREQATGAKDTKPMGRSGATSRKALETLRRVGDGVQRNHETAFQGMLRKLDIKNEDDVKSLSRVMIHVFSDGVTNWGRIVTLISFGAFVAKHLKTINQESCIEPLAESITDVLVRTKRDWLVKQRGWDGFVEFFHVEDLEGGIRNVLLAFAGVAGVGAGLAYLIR
T2 sequence (Q07820 171-327): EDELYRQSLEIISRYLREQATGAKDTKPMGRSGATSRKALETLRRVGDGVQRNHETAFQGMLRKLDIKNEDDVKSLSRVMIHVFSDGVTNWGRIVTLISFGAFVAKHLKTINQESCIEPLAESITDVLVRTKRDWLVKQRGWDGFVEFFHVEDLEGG

In the case of `C[C@H]1C/C=C/[C@H](O)[C@@H]2CC[C@H]2CN2C[C@@]3(CCCc4cc(Cl)ccc43)COc3ccc(cc32)C(=O)NS(=O)(=O)[C@@H]1C1CCC1` (single isomer, unassigned) [Example 56], the concentration for half-maximal inhibition (IC50) (usually the concentration needed to halve the response being measured) was 31.9 nM in assay [1], 208 nM with OPM-2 (16 h) and 0.289 nM at recombinant human Mcl-1.
On to `CO[C@H]1/C=C/C[C@H](C)[C@@H](C2CC2)S(=O)(=O)NC(=O)c2ccc3c(c2)N(C[C@@H]2CC[C@H]21)C[C@@]1(CCCc2cc(Cl)ccc21)CO3` [Example 48, (1S,3′R,6′R,7′S,8′E,11′S,12′S)-6-Chloro-12′-Cyclopropyl-7′-Methoxy-11′-Methyl-3,4-Dihydro-2H,15′H-Spiro [Naphthalene-1,22′-[20]Oxa[13]Thia[1,14]Diazatetracyclo[14.7.2.0^3,6.0^19,24]Pentacosa[8,16,18,24]Tetraen]-15′-One 13′,13′-Dioxide], for which the half-maximal inhibitory concentration (IC50) came out at 477 nM in assay [1]; 5580 nM in the assay on OPM-2 (Homo sapiens, OPM-2, 16 h); 3.89 nM at recombinant human Mcl-1.
As to `C[C@@H]1C/C=C/[C@H](O)[C@@H]2CC[C@H]2CN2C[C@@]3(CCCc4cc(Cl)ccc43)COc3ccc(cc32)C(=O)NS(=O)(=O)[C@H]1CC1CCC1` (single isomer, unassigned) [Example 64], the half-inhibitory concentration (IC50) in assay [1] worked out at 318 nM; with OPM-2 (16 h), 8630 nM; at recombinant human Mcl-1, 13.6 nM.
Take `CC[C@@H]1[C@@H](C)C/C=C/[C@H](O)[C@@H]2CC[C@H]2CN2C[C@@]3(CCCc4cc(Cl)ccc43)COc3ccc(cc32)C(=O)NS1(=O)=O` (single isomer, unassigned) [Example 24]: the IC50 in assay [1] was determined as 20.1 nM; in the assay on OPM-2 (Homo sapiens, OPM-2, 16 h), 125 nM; at recombinant human Mcl-1 it was 0.153 nM.
The like results for `COCCO[C@H]1/C=C/C[C@H](C)[C@@H](C)S(=O)(=O)NC(=O)c2ccc3c(c2)N(C[C@@H]2CC[C@H]21)C[C@@]1(CCCc2cc(Cl)ccc21)CO3` [Example 74, (1S,3′R,6′R,7′S,8′E,11′S,12′R)-6-Chloro-7′-(2-Methoxyethoxy)-11′,12′-Dimethyl-3,4-Dihydro-2H,15′H-Spiro[Naphthalene-1,22′-[20]Oxa[13]Thia[1,14]Diazatetracyclo[14.7.2.0^3,6.0^19,24]Pentacosa[8,16,18,24]Tetraen]-15′-One-13′, 13′-Dioxide] were, in that order, 273 nM, 1740 nM and 2.23 nM.
The like results for `CO[C@H]1/C=C/CC[C@@H](C)S(=O)(=O)NC(=O)c2ccc3c(c2)N(C[C@@H]2CC[C@H]21)C[C@@]1(CCCc2cc(Cl)ccc21)CO3` [Example 13, (1S,3′R,6′R,7′S,8′E,12′R)-6-Chloro-7′-Methoxy-12′-Methyl-3,4-Dihydro-2H,15′H-Spiro[Naphthalene-1,22′-[20]Oxa[13]Thia[1,14]Diazatetracyclo[14.7.2.0^3,6.0^19,24]Pentacos A[8,16,18,24]Tetraen]-15′-One 13′,13′-Dioxide] were, in that order, 34.1 nM, 353 nM and 0.441 nM.
For `C[C@H]1C/C=C/[C@H](O)[C@@H]2CC[C@H]2CN2C[C@@]3(CCCc4cc(Cl)ccc43)COc3ccc(cc32)C(=O)NS(=O)(=O)[C@@H]1C1CCC1` (single isomer, unassigned) [Example 57], the results for the IC50 (in assay [1]; in the assay on OPM-2 (16 h); on recombinant human Mcl-1) were 375 nM, 2400 nM and 2.15 nM, respectively.
Turning to `CO[C@H]1/C=C/CCCS(=O)(=O)NC(=O)c2ccc3c(c2)N(C[C@@H]2CC[C@H]21)C[C@@]1(CCCc2cc(Cl)ccc21)CO3` [Example 9, (1S,3′R,6′R,7′S,8′E)-6-Chloro-7′-Methoxy-3,4-Dihydro-2H,15′H-Spiro[Naphthalene-1,22′-[20]Oxa[13]Thia[1,14]Diazatetracyclo[14.7.2.0^3,6.0^19,24]Pentacos A[8,16,18,24]Tetraen]-15′-One 13′,13′-Dioxide], the IC50 stood at 127 nM in assay [1]; 1200 nM in the assay with OPM-2 (Homo sapiens, OPM-2, 16 h); 1.24 nM on recombinant human Mcl-1.
Consider `CC(C)[C@@H]1[C@H](C)C/C=C/[C@H](O)[C@@H]2CC[C@H]2CN2C[C@@]3(CCCc4cc(Cl)ccc43)COc3ccc(cc32)C(=O)NS1(=O)=O` (single isomer, unassigned) [Example 51], for which the results for the IC50 (in assay [1]; in the assay on OPM-2 (16 h); at recombinant human Mcl-1) were 792 nM, 14400 nM and 24.3 nM, respectively.
In the case of `CC[C@@H]1CC/C=C\[C@H](O)[C@@H]2CC[C@H]2CN2C[C@@]3(CCCc4cc(Cl)ccc43)COc3ccc(cc32)C(=O)NS1(=O)=O` (single isomer, unassigned) [Example 18], the IC50 in the assay with OPM-2 (Homo sapiens, OPM-2, 16 h) stood at 694 nM.
Consider `CC1(C)CCCC[C@H](O)[C@@H]2CC[C@H]2CN2C[C@@]3(CCCc4cc(Cl)ccc43)COc3ccc(cc32)C(=O)NS1(=O)=O` [Example 42], for which the values for the IC50 (in assay [1]; on recombinant human Mcl-1) were 850 nM and 7.55 nM, respectively.
In the case of `CO[C@H]1/C=C\C[C@H](C)[C@@H](C)S(=O)(=O)NC(=O)c2ccc3c(c2)N(C[C@@H]2CC[C@H]21)C[C@@]1(CCCc2cc(Cl)ccc21)CO3` [Example 5, (1S,3′R,6′R,7′S,8′Z,11′S,12′R)-6-Chloro-7′-Methoxy-11′,12′-Dimethyl-3,4-Dihydro-2H,15′H-Spiro[Naphthalene-1,22′-[20]Oxa[13]Thia[1,14]Diazatetracyclo[14.7.2.0^3,6.0^19,24]Pentacos A[8,16,18,24]Tetraen]-15′-One 13′,13′-Dioxide], the midpoint of inhibition with OPM-2 (Homo sapiens, OPM-2, 16 h), the IC50, lay at 1140 nM.
`CC[C@H]1CCCC[C@H](O)[C@@H]2CC[C@H]2CN2C[C@@]3(CCCc4cc(Cl)ccc43)COc3ccc(cc32)C(=O)NS1(=O)=O` [Example 23, (1S,3′R,6′R,7′S,12′S)-6-Chloro-12′-Ethyl-7′-Hydroxy-3,4-Dihydro-2H,15′H-Spiro[Naphthalene-1,22′-[20]Oxa[13]Thia[1,14]Diazatetracyclo[14.7.2.0^3,6.0^19,24]Pentacos A[16,18,24]Trien]-15′-One 13′,13′-Dioxide]: the IC50 in assay [1] was determined as 372 nM; at recombinant human Mcl-1, 3.68 nM.
Regarding `C[C@@H]1CCC[C@H](O)[C@@H]2CC[C@H]2CN2C[C@@]3(CCCc4cc(Cl)ccc43)COc3ccc(cc32)C(=O)NS(=O)(=O)C1` (single isomer, unassigned) [Example 39], the half-maximal inhibitory concentration (IC50) at recombinant human Mcl-1 was 10.7 nM.
In the assay with OPM-2 (Homo sapiens, OPM-2, 16 h), `CC[C@H]1CC/C=C/[C@H](O)[C@@H]2CC[C@H]2CN2C[C@@]3(CCCc4cc(Cl)ccc43)COc3ccc(cc32)C(=O)NS1(=O)=O` (single isomer, unassigned) [Example 19] displayed an IC50 of 3990 nM.
The same measure, in the same setting: the value for `CC[C@@H]1CC/C=C/[C@H](O)[C@@H]2CC[C@H]2CN2C[C@@]3(CCCc4cc(Cl)ccc43)COc3ccc(cc32)C(=O)NS1(=O)=O` (single isomer, unassigned) [Example 17] was 260 nM.
For `C[C@H]1CCC[C@H](O)[C@@H]2CC[C@H]2CN2C[C@@]3(CCCc4cc(Cl)ccc43)COc3ccc(cc32)C(=O)NS(=O)(=O)C1` (single isomer, unassigned) [Example 38], in assay [1], the half-maximal inhibitory concentration (IC50) worked out at 1040 nM.
For the compound `C[C@H]1CCC[C@H](O)[C@@H]2CC[C@H]2CN2C[C@@]3(CCCc4cc(Cl)ccc43)COc3ccc(cc32)C(=O)NS(=O)(=O)[C@H]1C` [Example 37, (1S,3′R,6′R,7′S,11′S,12′S)-6-Chloro-7′-Hydroxy-11,12′-Dimethyl-3,4-Dihydro-2H,15′H-Spiro[Naphthalene-1,22′-[20]Oxa[13]Thia[1,14]Diazatetracyclo[14.7.2.0^3,6.0^19,24]Pentacos A[16,18,24]Trien]-15′-One 13′,13′-Dioxide], the 50% inhibitory concentration (IC50) in assay [1] amounted to 667 nM; in the assay with OPM-2 (Homo sapiens, OPM-2, 16 h), 5740 nM.
On to `C[C@@H]1CCC[C@H](O)[C@@H]2CC[C@H]2CN2C[C@@]3(CCCc4cc(Cl)ccc43)COc3ccc(cc32)C(=O)NS(=O)(=O)[C@H]1C` (single isomer, unassigned) [Example 36], for which the IC50 in assay [1] was determined as 1500 nM; on recombinant human Mcl-1, 44.5 nM.
In the case of `CO[C@H]1/C=C/C[C@H](C)[C@@H](C)S(=O)(=O)NC(=O)c2ccc3c(c2)N(C[C@@H]2CC[C@H]21)C[C@@]1(CCCc2cc(Cl)ccc21)CO3` [Example 4, (1S,3′R,6′R,7′S,8′E,11′S,12′R)-6-Chloro-7′-Methoxy-11′,12′-Dimethyl-3,4-Dihydro-2H,15′H-Spiro[Naphthalene-1,22′-[20]Oxa[13]Thia[1,14]Diazatetracyclo[14.7.2.0^3,6.0^19,24]Pentacos A[8,16,18,24]Tetraen]-15′-One-13′, 13′-Dioxide], the half-inhibitory concentration (IC50) in the assay on OPM-2 (Homo sapiens, 16 h) was determined as 236 nM.
